Source: the supplement of paper PMC10477900

Columns and labels:
HCT116 [1] = test: viability inhibition vs untreated; higher = more cytotoxic; conditions: 72 h
HCT116 [2] = conditions: 72 h
Method: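 HCT116 control and MTA1-KO (CRISPR) HCT116 cells were seeded in 384-well plates (800 cells/well), treated 16 h later with 237 metabolism-related anticancer drugs at five doses (10 uM, 2 uM, 400 nM, 80 nM, 16 nM) for 72 h, two replicates; viability by CCK8. Values are % inhibition of viability relative to untreated cells, plus fitted IC50.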

SMILES | viability inhibition (HCT116 [1]; genotype: MTA1-KO, 16 nM) [%] | viability inhibition (HCT116 [1]; genotype: MTA1-KO, 80 nM) [%] | viability inhibition (HCT116 [1]; genotype: MTA1-KO, 400 nM) [%] | viability inhibition (HCT116 [1]; genotype: MTA1-KO, 2000 nM) [%] | viability inhibition (HCT116 [1]; genotype: MTA1-KO, 10000 nM) [%] | viability inhibition (HCT116 [1]; genotype: control, 16 nM) [%] | viability inhibition (HCT116 [1]; genotype: control, 80 nM) [%] | viability inhibition (HCT116 [1]; genotype: control, 400 nM) [%] | viability inhibition (HCT116 [1]; genotype: control, 2000 nM) [%] | viability inhibition (HCT116 [1]; genotype: control, 10000 nM) [%] | IC50 (HCT116 [2]; genotype: MTA1-KO) [µM] | IC50 (HCT116 [2]; genotype: control) [µM]
Cc1ccc2c(c1)C(=O)[C@]1(O)CCN(c3ccccc3)C1=N2 [(-)-Blebbistatin] | 2.62 | -5.47 | -2.06 | -3.88 | -5.36 | -9 | -4.56 | -13.5 | -18.9 | -8.68 | > 10 | > 10
NS(=O)(=O)c1cc2c(cc1Cl)NC(C(Cl)Cl)NS2(=O)=O (centres undefined) [Trichlormethiazide] | -29.5 | -30.5 | -28.4 | -24.3 | -25.6 | -19.9 | -23.8 | -25.7 | -14.7 | -2.52 | > 10 | > 10
Oc1cccc(-c2nc(N3CCOCC3)c3oc4ncccc4c3n2)c1 [PI103] | 7.63 | -22.6 | -6.55 | 42.3 | 80.5 | -15.1 | -2.17 | -8.02 | -2.63 | 80.1 | 1.82 | 5.97
CC[C@H](C)C(=O)O[C@H]1CCC=C2C=C[C@H](C)[C@H](CC[C@@H]3C[C@@H](O)CC(=O)O3)[C@H]21 [Mevastatin] | -20.4 | -7.46 | -17.3 | -17.5 | -22.4 | -7.08 | 9.09 | 5.14 | 1.68 | 23.8 | > 10 | > 10
C=CC[C@@H]1/C=C(\C)C[C@H](C)C[C@H](OC)[C@H]2O[C@@](O)(C(=O)C(=O)N3CCCC[C@H]3C(=O)O[C@H](/C(C)=C/[C@@H]3CC[C@@H](O)[C@H](OC)C3)[C@H](C)[C@@H](O)CC1=O)[C@H](C)C[C@@H]2OC [Tacrolimus] | -4.95 | -4.18 | 0.155 | -5.39 | -7.24 | 5.2 | 13.7 | 18 | 7.23 | 7.94 | > 10 | > 10
NS(=O)(=O)c1cc2c(cc1Cl)NC=NS2(=O)=O [Chlorothiazide] | -10.2 | -0.674 | -4.5 | -3.61 | -8.39 | 3.92 | 0.542 | 0.606 | -0.861 | 5.64 | > 10 | > 10
N#C/C(=C\c1cn(-c2ccccc2)c2ccccc12)C(=O)O [UK5099] | 12.9 | -2.58 | -5.75 | -0.99 | 14 | 8.77 | 3.74 | 4.2 | 20.2 | 40 | > 10 | > 10
